Source: PMC9866601, “Constituents of Pulicaria inuloides and Cytotoxic Activities of Two Methoxylated Flavonols” (Molecules, 2023)
Like-named read-outs stand apart in the source and are kept apart here.

Key:
cholinesterase = test system: cholinesterase; design: method as in PMID 30673162; details: cited from earlier work
HeLa cells = test system: HeLa cells; design: method as in PMID 30673162; details: in vitro; cited from earlier work
A549 cells = test system: A549 cells; design: method as in PMID 30673162; details: in vitro; cited from earlier work
HaCaT cells = assay: MTT cytotoxicity assay, skin keratinocytes HaCaT; type: cell-based, human; details: for IC50: Homo sapiens, HaCaT
Procedure: (§1) Cytotoxic activity was tested on human cancer and normal cells, namely: prostate cancer cell lines DU145 (ATCC HTB-81) and PC3 (ATCC CRL-1435), prostate epithelial cells PNT-2 (ECACC 95012613), melanoma cell lines A375 (ATCC CRL-1619) and HTB140 (ATCC Hs 294T) and skin keratinocytes HaCaT (obtained as a kind gift from prof. Marta Michalik, Department of Cell Biology, Jagiellonian University). DU145 cells were grown in a modified Eagle’s medium with a low (1.0 g/L) glucose concentration, as well as PC3 and PNT-2 cells in Dulbecco’s modified Eagle’s media: F12 HAM nutrient mixture. At the same time, melanoma cells and keratinocytes were maintained in a modified Eagle’s medium with a high (4.5 g/L) glucose concentration. The culture media (all supplied by Sigma-Aldrich Co.; St. Louis, MO, USA) contained antibiotics and 10% fetal bovine serum (FBS). All cultures were maintained at 37 °C in a humidified 5% CO2-containing atmosphere.
(§2) The examined flavonols were diluted in the culture media from freshly made stock solutions in MeOH (10 mg/mL) to the working concentrations (from 5 to 100 μg/mL).
(§3) Cells were seeded in 96-well plates (1.5 × 10^4 cells/well) and preincubated for 24 h (37 °C, 5% CO2). Then, the culture medium was replaced with a fresh medium containing different concentrations of the tested compounds (5–100 µg/mL). The incubation lasted 48 h. Cell viability was measured by an MTT assay, as previously described. The absorbance at 490 nm was measured using a Synergy II Biotek (BioTek Instruments, Winooski, VT, USA) microplate reader. Cytotoxic activity was assessed based on the cell viability expressed as the percentage of living cells. The results were the means of three independent measurements (±SD). Doxorubicin (Ebewe Pharma GmbH., Unterach, Austria) was used as a reference cytostatic drug. The IC50 values were determined by plotting the percentage viability of the cells versus the concentration and adequate calculations made using either Excel or the AAT Bioquest website program (https://www.aatbio.com/tools/ic50-calculator, accessed on 4 September 2022).

PC3 cells = assay: MTT cytotoxicity assay, prostate cancer cells PC3; type: cell-based; details: Homo sapiens, PC-3, 48 h, 48 h treatment
Procedure: as §1, §2, §3

HTB140 cells = assay: MTT cytotoxicity assay, melanoma cells HTB140; type: cell-based, human; details: for IC50: Homo sapiens
Procedure: as §1, §2, §3

DU145 cells = assay: MTT cytotoxicity assay, prostate cancer cells DU145; type: cell-based; details: Homo sapiens, DU-145
Procedure: as §1, §2, §3

PNT-2 cells = assay: MTT cytotoxicity assay, normal prostate epithelial cells PNT-2; type: cell-based; details: Homo sapiens, PNT2
Procedure: as §1, §2, §3

A375 cells = assay: MTT cytotoxicity assay, melanoma cells A375; type: cell-based, human; details: for IC50: Homo sapiens, A-375
Procedure: as §1, §2, §3

[1] = 48 h treatment, 5–100 μg/mL, MTT, read-out: IC50 HaCaT
[2] = 48 h treatment, 5–100 μg/mL, MTT, read-out: IC50 HTB140
[3] = 48 h treatment, 5–100 μg/mL, MTT, read-out: IC50 DU145
[4] = 48 h treatment, 5–100 μg/mL, MTT, read-out: IC50 PNT-2
[5] = 48 h treatment, 5–100 μg/mL, MTT, read-out: IC50 A375

| SMILES | anticholinesterase activity (cholinesterase) | cytotoxic activity against HeLa cells (HeLa cells) | cytotoxic activity against A549 cells (A549 cells) | IC50 (HaCaT cells; [1]) [µg/mL] | IC50 (PC3 cells; 5–100 μg/mL) [µg/mL] | IC50 (HTB140 cells; [2]) [µg/mL] | IC50 (DU145 cells; [3]) [µg/mL] | IC50 (PNT-2 cells; [4]) [µg/mL] | IC50 (A375 cells; [5]) [µg/mL] | IC50 (HaCaT cells; abstract, value in µM, read-out: IC50 HaCaT (remaining cell lines)) [µM] | cytotoxic activity toward keratinocytes (HaCaT cells; dose range of 5–100 μg/mL) | IC50 (PC3 cells; value in µM) [µM] | IC50 (HTB140 cells; abstract, value in µM, read-out: IC50 HTB140 (remaining cell lines)) [µM] | cytotoxic activity toward melanoma cells (HTB140) (HTB140 cells; dose range of 5–100 μg/mL) | IC50 (DU145 cells; abstract, value in µM, read-out: IC50 DU145 (remaining cell lines)) [µM] | IC50 (PNT-2 cells; abstract, value in µM, read-out: IC50 PNT2 (remaining cell lines)) [µM] | IC50 (A375 cells; abstract, value in µM, read-out: IC50 A375 (remaining cell lines)) [µM] | cytotoxic activity toward melanoma cells (A375) (A375 cells; dose range of 5–100 μg/mL) |
| --- | --- | --- | --- | --- | --- | --- | --- | --- | --- | --- | --- | --- | --- | --- | --- | --- | --- | --- |
| C=C1CC/C=C(/CO)C(=O)C[C@@H]2[C@@H]1C[C@]2(C)COC(C)=O [Compound 9, (1S,9R)-12β-acetoxy-14-hydroxycaryophyll-5(6)-en-7-one] | weak anticholinesterase activity | moderate cytotoxic activity | moderate cytotoxic activity |  |  |  |  |  |  |  |  |  |  |  |  |  |  |  |
| COc1cccc2c1C(=O)c1c(O)c3c(c(O)c1C2=O)C[C@@](O)(C(=O)CO)C[C@@H]3O[C@H]1C[C@H](N)[C@H](O)[C@H](C)O1 [Doxorubicin, reference compound] |  |  |  | 4.68 | > 50 | 5.71 | 3.18 | 1.38 | 0.59 |  |  |  |  |  |  |  |  |  |
| C=C1CC/C=C(/CO)C(=O)C[C@@H]2[C@@H]1CC2(C)C [Compound 8, (1S,9R)-14-hydroxycaryophyll-5(6)-en-7-one] | weak anticholinesterase activity | moderate cytotoxic activity | moderate cytotoxic activity |  |  |  |  |  |  |  |  |  |  |  |  |  |  |  |
| COc1cc(-c2oc3cc(OC)c(O)c(O)c3c(=O)c2OC)ccc1O [Compound 11, quercetagetin 3,7,3′-trimethyl ether] |  |  |  | > 100 | 16.8 ± 0.77 | > 100 | 54.87 ± 0.23 | 82.4 ± 2.42 | > 100 | > 150 | not active | 46.6 | > 150 | not active | > 150 | > 150 | > 150 | not active |
